The results in this text go back to ChEMBL document CHEMBL4482324, “Ash1l inhibitors and methods of treatment therewith” (2017).

For data set [1], the target named is Histone-lysine N-methyltransferase ASH1L (Mus musculus) (UniProt Q99MY8). Description: Inhibition of ASH1L in MLL-AF9 transformed mouse MA9 cells assessed as downregulation of Meis1 gene expression at 1.5 to 6 uM by quantitative RT-PCR analysis.
For data set [2] the target is unchanged. Description: Inhibition of ASH1L in MLL-AF9 transformed mouse MA9 cells assessed as downregulation of HOX9 gene expression at 1.5 to 6 uM by quantitative RT-PCR analysis.
Another data set concerns MOLM-13. As to the kind of experiment: Cytotoxicity in human MOLM13 cells assessed as reduction in cell viability incubated for 12 days with fresh compound replacement for every 4 days by MTT assay. Type of data set: functional. (In general: Formazan colour is commonly taken as a measure of viable cells.)
The next data set deals with MV4-11. Description: Cytotoxicity in human MV4-11 cells assessed as reduction in cell viability incubated for 12 days with fresh compound replacement for every 4 days by MTT assay. Type of data set: functional.
Data set [3] deals with Histone-lysine N-methyltransferase ASH1L (Mus musculus) (UniProt Q99MY8). As to the kind of experiment: Inhibition of ASH1L in MLL-AF9 transformed mouse MA9 cells assessed as downregulation of HOX10 gene expression at 1.5 to 6 uM by quantitative RT-PCR analysis.
The next data set deals with RS4-11. As to the kind of experiment: Cytotoxicity in human RS4:11 cells assessed as reduction in cell viability incubated for 12 days with fresh compound replacement for every 4 days by MTT assay. Type of data set: functional.
A further data set has as its system SEM cells. Description: Cytotoxicity in human SEM cells assessed as reduction in cell viability incubated for 12 days with fresh compound replacement for every 4 days by MTT assay. Type of data set: functional.
Data set [4] has as its target Histone-lysine N-methyltransferase ASH1L (Homo sapiens, UniProt Q9NR48). Description: Inhibition of MOCR-fused ASH1L SET-BAH ( 2069 to 2833 amino acids) (unknown origin) expressed as in Escherichia coli BL21 (DE3) T1R cells using SAM and chicken mono/dinucleosomes incubated for 1 hr by scintillation counting assay.
Data set [5] is described as follows: Cytotoxicity in Hoxa9/Meis1 transformed mouse HM2 cells assessed as reduction in cell viability incubated for 12 days with fresh compound replacement for every 4 days by MTT assay. Type of data set: cell-based.
In data set [6] the target is Histone-lysine N-methyltransferase ASH1L (Mus musculus) (UniProt Q99MY8). Description: Inhibition of ASH1L in MLL-AF9 transformed mouse MA9 cells assessed as downregulation of Meis1 gene expression at 6 to 12 uM by quantitative RT-PCR analysis.
The target is the same in data set [7]. As to the kind of experiment: Inhibition of ASH1L in MLL-AF9 transformed mouse MA9 cells assessed as downregulation of HOX9 gene expression at 6 to 12 uM by quantitative RT-PCR analysis.
Data set [8] is described as follows: Effect on HOX9 gene expression in Hoxa9/Meis1 transformed mouse HM2 cells at 6 to 12 uM by quantitative RT-PCR analysis. Type of data set: ADME.
In data set [9] the target is Histone-lysine N-methyltransferase ASH1L (Mus musculus) (UniProt Q99MY8). As to the kind of experiment: Inhibition of ASH1L in MLL-AF9 transformed mouse MA9 cells assessed as downregulation of HOX10 gene expression at 6 to 12 uM by quantitative RT-PCR analysis.
The species named for another data set is Mus musculus. Description: Induction of cell differentiation in MLL-AF9 transformed mouse MA9 cells at 6 to 12 uM. Type of data set: functional.
The nature of data set [10]: Induction of cell differentiation in Hoxa9/Meis1 transformed mouse HM2 cells at 6 to 12 uM.
Data set [11] can be described thus: Effect on Meis1 gene expression in Hoxa9/Meis1 transformed mouse HM2 cells at 6 to 12 uM by quantitative RT-PCR analysis. Type of data set: ADME.
The target of data set [12] is Histone-lysine N-methyltransferase ASH1L (Mus musculus) (UniProt Q99MY8). Description: Inhibition of ASH1L in MLL-AF9 transformed mouse MA9 cells assessed as downregulation of HOX7 gene expression at 6 to 12 uM by quantitative RT-PCR analysis.
Data set [13] is described as follows: Cytotoxicity in MLL-AF9 transformed mouse MA9 cells assessed as reduction in cell viability incubated for 12 days with fresh compound replacement for every 4 days by MTT assay. Type of data set: functional.
The nature of data set [14]: Effect on HOX7 gene expression in Hoxa9/Meis1 transformed mouse HM2 cells at 6 to 12 uM by quantitative RT-PCR analysis. Type of data set: ADME.
Data set [15] is described as follows: Effect on HOX10 gene expression in Hoxa9/Meis1 transformed mouse HM2 cells at 6 to 12 uM by quantitative RT-PCR analysis. Type of data set: ADME.

Active and inactive are the calls of the source. No cut-off for these calls is given here.

`NC(=S)c1cccc(-c2cn(CCCC(F)(F)F)c3cc(-c4ccn[nH]4)ccc23)c1`: the inhibition result in data set [1], in data set [2] and in data set [3] was “Active” throughout. For the same compound, the GI50 turned out to be 1.4 µM in the data set on MOLM-13, 1.8 µM with MV4-11, 2.8 µM in the data set with RS4-11 and 1.1 µM in the data set with SEM cells. Further, the IC50 in [4] is below 20 µM.

`NC(=S)c1cccc(-c2cn(CC(CF)CF)c3cc(N)ccc23)c1`: the GI50 at 288 h in [5] was found to be 33 µM. Moreover, the inhibition result in [6], in [7], in data set [9] and in [12] was “Active” throughout. The results for the GI50 (with MOLM-13; with MV4-11; in data set [13]) were 9 µM, 2 µM and 6 µM, respectively. Further, the Activity entry in data set [8], in [10], in data set [11], in [14] and in [15] was “Non-Toxic” each time. Moreover, in the data set listed under Mus musculus, the outcome was Active. Further, the midpoint of inhibition in data set [4], the IC50, lay at 4.6 µM.

In the case of `NC(=S)c1cccc(-c2c[nH]c3ccc(O)cc23)c1`, in [5], the GI50 at 288 h turned out to be 62 µM. Moreover, the inhibition result in [6], in data set [7], in [9] and in data set [12] was “inactive” in each case. Further, the GI50 in the data set on MOLM-13 came to 38 µM; in the data set with MV4-11 it was 27 µM; in [13], 43 µM. Further, the Activity result in data set [8], in data set [11], in data set [14] and in data set [15] was “Non-Toxic” throughout. The compound further gave an IC50 in [4] above 100 µM.

As to `NC(=S)c1cccc(-c2cccc3[nH]c(CSP(=S)(c4ccccc4)c4ccccc4)cc23)c1`, the half-maximal inhibitory concentration (IC50) in data set [4] is above 100 µM.

Turning to `NC(=S)c1cccc(-c2cn(CC(C(F)F)C(F)F)c3cc(N)ccc23)c1`, in data set [4], the IC50 is below 20 µM.

For `NC(=S)c1cccc(-c2cn(CCC(F)F)c3cc(CNS(=O)(=O)C(F)(F)F)ccc23)c1`, the IC50 in [4] was below 20 µM.

For `NC(=S)c1cc(-c2ccc(O)cc2)cs1`, the IC50 in data set [4] is above 100 µM.

The compound `CCCS(=O)(=O)N1CCC(n2cc(-c3cccc(C(N)=S)c3)c3ccc(N)cc32)CC1` had an IC50 in data set [4] below 20 µM.

As for `NC(=S)c1cc(-c2cn(CCC(F)F)c3cc(CO)ccc23)c[nH]1`, the IC50 in data set [4] is below 20 µM.

Compound `NC(=S)c1ccsc1` registered an IC50 in data set [4] above 100 µM.

With `NC(=S)c1cccc(-c2cn(CC3(C(F)(F)F)CC3)c3cc(N)ccc23)c1`, the IC50 in data set [4] is below 20 µM.

In turn, `NC(=S)c1cccc(-c2cn(C3CCOCC3)c3cc(-c4ccn[nH]4)ccc23)c1` returned an IC50 in data set [4] below 20 µM.

Compound `COc1c(C(N)=S)cccc1-c1ccc(O)cc1` came in with an IC50 in data set [4] above 100 µM.

As to `NC(=S)c1cccc(-c2cn(C3CCC3)c3cc(CO)ccc23)c1`, in data set [4], the IC50 was below 20 µM.

In [4], `NC(=S)c1cccc(-c2cn(CCC3CC3)c3cc(CO)ccc23)c1` gave an IC50 below 20 µM.

For `NC(=S)c1cccc(-c2cn(CC3C(F)(F)CC3(F)F)c3cc(CO)ccc23)c1`, in data set [4], the half-inhibitory concentration (IC50) is below 20 µM.

In data set [4], `Cc1cc2c(-c3cccc(C(N)=S)c3)cccc2n1C` yielded an IC50 above 100 µM.

For the compound `NC(=S)c1cccc(-n2cc(CC(CF)CF)c3cc(N)ccc32)c1`, in [4], the IC50 was below 20 µM.

In [4], `NC(=S)c1cccc(-c2cn(CC(CF)CF)c3cc(O)ccc23)c1` showed an IC50 below 20 µM.

As to `NC(=S)c1cc(-c2cn(CCC(F)F)c3cc(CO)ccc23)c2ocnc2c1`, the IC50 in data set [4] is below 20 µM.

On to `NC(=S)c1cccc(-c2c[nH]c3cc(C(N)=S)ccc23)c1`, for which the IC50 in data set [4] was in the range of 20 to 100 µM.

`CS(=O)(=O)N1CCC(n2cc(-c3cccc(C(N)=S)c3)c3ccc(N)cc32)CC1` yielded an IC50 in data set [4] below 20 µM.

Consider `NC(=S)c1cccc(-c2cccc3[nH]ccc23)n1`, for which the IC50 in [4] is above 100 µM.

In turn, `Cc1cc(O)cc(C)c1-c1cccc(C(N)=S)c1` came in with an IC50 in data set [4] above 100 µM.

In turn, `NC(=S)c1cccc(-c2cn(CC3CC(O)C(O)C3)c3cc(CO)ccc23)c1` (stereo unspecified) returned an IC50 in data set [4] below 20 µM.

In data set [4], `NC(=S)c1cccc(-c2cn(CC3CC3)c3cc(CO)ccc23)c1` came in with an IC50 below 20 µM.

Compound `NC(=S)c1cccc(-n2cccc2)c1` had a 50% inhibitory concentration (IC50) in data set [4] above 100 µM.

In the case of `NC(=S)c1cccc(-c2cccc3[nH]ccc23)c1`, the IC50 in data set [4] lay within 20 to 100 µM.

Broadly, the GI50 is the concentration giving 50% growth inhibition. As a reminder, the IC50 is the point on the concentration scale where inhibition reaches its midpoint. Read a high IC50 as weaker potency.
